Laboratory results published in US20080025960A1, “Detergents with stabilized enzyme systems” (priority 2006, published 2008).

How the values were obtained:
alcohol oxidase [1] = target: T1, alcohol oxidase (Pichia angusta, UniProt P04841); assay: Hydrogen peroxide concentration in control buffer or AATCC liquid detergent stock (as is) with alcohol oxidase, ethanol and inhibitor; format: biochemical, Hansunela sp.; conditions: for character of alcohol oxidase inhibition: 100 mM concentration tested; for premature generation of H2O2 in AATCC detergent stock / H2O2 PPM: 100 mM inhibitor; for premature generation of H2O2 in AATCC detergent stock: period of investigation 120 minutes; for H2O2 PPM: as is, 1 M ethanol, 10U enzyme
T1 construct: purchased Sigma
T1 sequence (P04841 whole entry): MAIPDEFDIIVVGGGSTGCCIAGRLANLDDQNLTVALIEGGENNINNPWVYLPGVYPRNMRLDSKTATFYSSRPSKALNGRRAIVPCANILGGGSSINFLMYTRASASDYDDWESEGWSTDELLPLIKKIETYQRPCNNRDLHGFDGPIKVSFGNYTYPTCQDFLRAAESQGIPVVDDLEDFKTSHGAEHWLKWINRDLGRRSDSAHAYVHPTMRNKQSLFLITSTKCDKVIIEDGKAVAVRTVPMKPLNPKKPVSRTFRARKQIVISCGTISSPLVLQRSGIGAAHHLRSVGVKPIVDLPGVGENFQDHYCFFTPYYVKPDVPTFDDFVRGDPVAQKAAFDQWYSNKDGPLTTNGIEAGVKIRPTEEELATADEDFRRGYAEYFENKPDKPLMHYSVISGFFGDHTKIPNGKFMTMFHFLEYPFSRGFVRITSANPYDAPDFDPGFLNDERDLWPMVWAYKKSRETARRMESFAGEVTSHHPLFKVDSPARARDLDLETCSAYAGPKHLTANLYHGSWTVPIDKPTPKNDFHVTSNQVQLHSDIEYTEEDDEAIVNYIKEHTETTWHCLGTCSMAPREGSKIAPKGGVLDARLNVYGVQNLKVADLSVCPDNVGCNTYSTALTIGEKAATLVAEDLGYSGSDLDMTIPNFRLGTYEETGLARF
Method: In these experiments, the stability of alcohol oxidase obtained from Hansunela sp., (100 U/ml. 22 U/mg, 13 mg total solid in vial, 7.7 U/mg solid; Sigma) in AATCC liquid detergent was tested. In these experiments, 10 U of the alcohol oxidase were used in liquid detergent stock for each experiment. For testing, 1M ethanol was mixed into the detergent (46 mg ethanol in 990 mg detergent). […] The experiments were conducted as described above in Examples 1 and 3.

glucose oxidase = target: T2, glucose oxidase (Aspergillus niger, UniProt P13006); assay: Premature hydrogen peroxide generation by glucose oxidase in control buffer or AATCC liquid detergent stock (as is) with glucose and inhibitor, dipsticks; format: biochemical; conditions: for Hydrogen Peroxide Generation, PPM H2O2: T = 0+, 500 PPM oxidase; for Hydrogen Peroxide Generation, PPM H2O2 / hydrogen peroxide production / H2O2 generated: as is; for Hydrogen Peroxide Generation, PPM H2O2 / premature hydrogen peroxide generation / H2O2 PPM: 500 mM glucose; for premature hydrogen peroxide generation: liquid detergent formulation, 500 PPM glucose oxidase, over 21 days; for H2O2 PPM: T = 0+, 12, 30, as is, 500 PPM enzyme, 100 mM sodium metabisulfite; for H2O2 generated: time 0+
T2 construct: purchased Genencor OXYGO L-5000
T2 sequence (P13006 17-605): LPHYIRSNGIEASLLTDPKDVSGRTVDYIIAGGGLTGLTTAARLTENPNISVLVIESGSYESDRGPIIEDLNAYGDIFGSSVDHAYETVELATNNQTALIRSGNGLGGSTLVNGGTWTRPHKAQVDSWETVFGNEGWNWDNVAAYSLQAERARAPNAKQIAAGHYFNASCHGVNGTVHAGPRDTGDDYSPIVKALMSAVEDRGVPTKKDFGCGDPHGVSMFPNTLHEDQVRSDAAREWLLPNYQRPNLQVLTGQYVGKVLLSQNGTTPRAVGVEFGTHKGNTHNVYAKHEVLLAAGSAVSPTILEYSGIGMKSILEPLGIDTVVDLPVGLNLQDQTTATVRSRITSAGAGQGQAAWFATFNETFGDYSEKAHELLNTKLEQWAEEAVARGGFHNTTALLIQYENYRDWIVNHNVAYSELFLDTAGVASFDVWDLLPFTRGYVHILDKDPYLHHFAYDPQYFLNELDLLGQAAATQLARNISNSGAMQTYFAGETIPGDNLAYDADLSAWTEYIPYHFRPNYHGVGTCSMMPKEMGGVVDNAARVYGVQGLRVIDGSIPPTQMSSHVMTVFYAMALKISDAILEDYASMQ
Source text: In this Example, experiments conducted to assess the stabilization of glucose oxidase in the presence of its substrate (i.e., glucose) and an inhibitor (i.e., sodium hydrogen sulfite) is described. In these experiments, AATCC standard detergent (American Association of Textile Chemists and Colorists Heavy Duty Liquid detergent version 2003 without brightener; key components include linear alkane sulfonate, alcohol ethoxylate, propanediol, citric acid, fatty acid, castic soda and water; purchased from TestFabrics) was used.
In these experiments, 100 mM Tris pH 8.3, with 0.005% TWEEN®-100 surfactant used as a positive control. […] Three two-ml tubes were weighed with 0.990 g of AATCC detergent (lot # 01282004) and another three tubes with 0.990 g of control buffer. Then, 90 mg (500 mM) of glucose substrate were added to all of the tubes. Next, 100, 50, and 10 mM sodium hydrogen sulfite (MW 106.1) were added to each tube respectively, including the control buffer and AATCC detergent control. All of the tubes were placed on a rotary plate for an hour to allow good mixing and solubilization of glucose into the detergent. Then, 500 PPM (0.5 mg, 14.88 ul) glucose oxidase (OXYGO™ L-5000, 5379 U/ml; 33.6 mg/ml; Genencor) was added to six 2-ml tubes (three with glucose/bisulfite containing control buffers and three with glucose/bisulfite containing AATCC detergent). All of the tubes were then set on the rotary plate (60 rpm) at room temperature. Hydrogen peroxide production was measured using dipsticks (peroxidase/ABTS—Baker Testrips;Baker) at various times—t=0+minutes, 12 minutes, and 30 minutes. The tube containing 100 mM bisulfite with glucose, glucose oxidase in liquid detergent was further monitored for premature generation of hydrogen peroxide further over a period of time starting at 1 hr, 12 hr, 7 days, 12 days and up to 21 days.
In these experiments, 100 mM Tris pH 8.3, with 0.005% TWEEN®-100 surfactant was used as a positive control. […] Three two-ml tubes were weighed with 0.990 g of AATCC detergent (lot # 01282004) and another three tubes with 0.990 g of control buffer.
Three two-ml tubes containing 0.990 g of AATCC detergent (lot # 01282004) and another three tubes with 0.990 g of control buffer were weighed. Then, 90 mg (500 mM) glucose substrate was added to each tube. Then, 100, 50, and 10 mM sodium metabisulfite were added to each tube respectively (i.e., both control buffer and AATCC detergent-containing tubes). All of the tubes were placed on a rotary plate for an hour to allow good mixing and solubilization of glucose into the detergent. Next, 500 PPM (0.5 mg, 14.88 ul) glucose oxidase (OXYGO™ L-5000, 5379 U/ml; 33.6 mg/ml; Genencor) was added to six 2-ml tubes (three with glucose/metabisulfite containing control buffers and three with glucose/metabisulfite containing AATCC detergent). All of the tubes were then set on the rotary plate (60 rpm) at room temperature. H2O2 production was measured using dipsticks (peroxidase/ABTS), as described in Examples 1 and 2, for t=0+ minutes, 12 minutes, and 30 minutes. The tube containing 100 mM bisulfite with glucose, glucose oxidase in liquid detergent was further monitored for premature generation of hydrogen peroxide further over a period of time starting at 1 hr, 12 hr, 7 days, 12 days and up to 21 days.

alcohol oxidase [2] = target: T1, alcohol oxidase; assay: Hydrogen peroxide concentration in wash liquor with alcohol oxidase, ethanol and inhibitor; format: biochemical, Hansunela sp.; conditions: 2 mM ethanol, 0.02U enzyme, 0.2 mM inhibitor
Method: The stability and activity of the alcohol oxidase enzyme (described in Example 5) in AATCC liquid detergent (Sigma, 100 U/ml. 22 U/mg, 13 mg total solid in vial, 7.7 U/mg solid) was tested upon dilution into wash liquor. In these experiments, 10 U of alcohol oxidase were used in liquid detergent stock for each experiment. In addition, 1M ethanol (substrate) was mixed in detergent (46 mg ethanol in 990 mg detergent). […] In these experiments, 10 ul of final detergent mix or control mix were added to 5 ml of wash liquor. The same methods as described in Examples 2 and 4 were used in these experiments.

Compound | character of alcohol oxidase inhibition (alcohol oxidase [1]) | premature generation of H2O2 in AATCC detergent stock (alcohol oxidase [1]) | H2O2 PPM (alcohol oxidase [1]; AATCC Detergent, T = 0+) [PPM] | H2O2 PPM (alcohol oxidase [1]; AATCC Detergent, T = 12 min) [PPM] | H2O2 PPM (alcohol oxidase [1]; AATCC Detergent, T = 30 min) [PPM] | H2O2 PPM (alcohol oxidase [1]; AATCC Detergent, T = 120 min) | H2O2 PPM (alcohol oxidase [1]; Control Buffer, T = 0+) [PPM] | H2O2 PPM (alcohol oxidase [1]; Control Buffer, T = 12 min) [PPM] | H2O2 PPM (alcohol oxidase [1]; Control Buffer, T = 30 min) [PPM] | H2O2 PPM (alcohol oxidase [1]; Control Buffer, T = 120 min) [PPM] | H2O2 PPM (alcohol oxidase [2]; AATCC Detergent, T = 12 min) [PPM] | H2O2 PPM (alcohol oxidase [2]; AATCC Detergent, T = 30 min) [PPM] | H2O2 PPM (alcohol oxidase [2]; AATCC Detergent, T = 120 min) | H2O2 PPM (alcohol oxidase [2]; Control Buffer, T = 0+) [PPM] | H2O2 PPM (alcohol oxidase [2]; Control Buffer, T = 12 min) [PPM] | H2O2 PPM (alcohol oxidase [2]; Control Buffer, T = 30 min) [PPM] | H2O2 PPM (alcohol oxidase [2]; Control Buffer, T = 120 min) | other results
O=S([O-])O.[Na+] [bisulfite, sodium hydrogen sulfite] | reversible inhibitors | able to stop premature generation of H2O2 | 0 | 0 | 0 | 0, PPM | 0 | 0 | 0 | 0 | 0 | 0 | >3 (hydrogen sulfite) PPM | 0 | 0 | 0 | 1 (hydrogen sulfite) PPM | Hydrogen Peroxide Generation, PPM H2O2 (glucose oxidase; AATCC Detergent, 10 mM bisulfite): >10 PPM; Hydrogen Peroxide Generation, PPM H2O2 (glucose oxidase; AATCC Detergent, 50 mM bisulfite): 10 PPM; Hydrogen Peroxide Generation, PPM H2O2 (glucose oxidase; AATCC Detergent, 100 mM bisulfite): 0 PPM; Hydrogen Peroxide Generation, PPM H2O2 (glucose oxidase; Control Buffer, 10 mM bisulfite): 1 PPM; Hydrogen Peroxide Generation, PPM H2O2 (glucose oxidase; Control Buffer, 50 mM bisulfite): 0 PPM; Hydrogen Peroxide Generation, PPM H2O2 (glucose oxidase; Control Buffer, 100 mM bisulfite): 0 PPM; hydrogen peroxide production (glucose oxidase; Example 3 (metabisulfite), buffer control mixture, 50 mM, various time periods tested): did not produce any hydrogen peroxide; hydrogen peroxide production (glucose oxidase; Example 3 (metabisulfite), buffer control mixture, 100 mM, time periods tested): did not produce any hydrogen peroxide; hydrogen peroxide production (glucose oxidase; buffer control mixture, 50 mM bisulfite, various time periods tested): did not produce any hydrogen peroxide; hydrogen peroxide production (glucose oxidase; buffer control mixture, 100 mM bisulfite, time periods tested): did not produce any hydrogen peroxide; premature hydrogen peroxide generation (glucose oxidase; 100 mM sodium hydrogen sulfite): no premature hydrogen peroxide generation was observed; H2O2 PPM (alcohol oxidase [2]; AATCC Detergent, T = 0+): 0 PPM
O=S([O-])S(=O)(=O)[O-].[Na+].[Na+] [sodium metabisulfite] | reversible inhibitors | able to stop premature generation of H2O2 | 0 | 0 | 0 | 0, PPM | 0 | 0 | 0 | 0 | 0 | 0 | 1 (metabisulfite) PPM | 0 | 0 | 0 | 0 (metabisulfite) PPM | H2O2 PPM (glucose oxidase; AATCC Detergent): 0 PPM; H2O2 PPM (glucose oxidase; Control Buffer): 0 PPM; H2O2 generated (glucose oxidase; buffer control mixture, 10 mM metabisulfite): 1 PPM; H2O2 generated (glucose oxidase; detergent mixture, 10 mM metabisulfite): > 10 PPM; H2O2 generated (glucose oxidase; detergent mixture, 50 mM metabisulfite): > 10 PPM; premature hydrogen peroxide generation (glucose oxidase; 100 mM inhibitor): no premature hydrogen peroxide generation was observed
